≈ marks a conversion by molar mass, not a printed value. Read-outs that look alike come from different tables or passages of the source.
Columns and labels:
[1] = molecular target: T1, CYP125 (Mycobacterium tuberculosis, UniProt P9WPP1); experiment: biochemical; format: binding; conditions: UV-Vis spectroscopy
T1 construct: encoding residues 18-433; twin-strep hexahistidine tag (TEV-cleavable) (N, cleaved yes); made in house; host or cells: E. coli C41(DE3), pET21a
T1 sequence (P9WPP1 18-433 limits assumed): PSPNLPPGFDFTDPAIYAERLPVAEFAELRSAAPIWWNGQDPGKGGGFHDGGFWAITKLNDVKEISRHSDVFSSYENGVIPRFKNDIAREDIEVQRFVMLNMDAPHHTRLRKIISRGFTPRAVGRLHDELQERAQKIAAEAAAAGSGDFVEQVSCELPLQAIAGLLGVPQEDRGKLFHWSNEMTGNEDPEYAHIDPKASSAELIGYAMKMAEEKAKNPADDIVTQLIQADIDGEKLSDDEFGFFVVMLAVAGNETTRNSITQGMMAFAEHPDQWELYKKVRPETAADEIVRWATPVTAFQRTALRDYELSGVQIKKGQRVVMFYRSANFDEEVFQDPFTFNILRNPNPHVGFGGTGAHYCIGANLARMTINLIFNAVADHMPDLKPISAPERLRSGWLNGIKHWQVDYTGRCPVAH

[2] = molecular target: T2, CYP142 (Mycobacterium tuberculosis, UniProt P9WPL5); experiment: biochemical; conditions: UV-Vis spectroscopy
T2 sequence (P9WPL5 2-398): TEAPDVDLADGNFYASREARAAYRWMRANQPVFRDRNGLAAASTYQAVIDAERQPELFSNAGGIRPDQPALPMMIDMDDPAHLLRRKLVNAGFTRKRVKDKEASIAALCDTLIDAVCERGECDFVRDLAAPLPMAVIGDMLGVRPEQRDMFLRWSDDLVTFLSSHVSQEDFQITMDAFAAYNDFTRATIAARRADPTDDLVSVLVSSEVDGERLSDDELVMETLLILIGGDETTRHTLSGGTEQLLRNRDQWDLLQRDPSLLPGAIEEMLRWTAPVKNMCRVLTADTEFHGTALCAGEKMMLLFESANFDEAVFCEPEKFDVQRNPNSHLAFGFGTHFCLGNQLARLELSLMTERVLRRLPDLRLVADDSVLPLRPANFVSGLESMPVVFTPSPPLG

[3] = test system: Mtb strain K18b01MR; experiment: microbe, parasite or virus in culture; format: cell-based; conditions: Mycobacterium tuberculosis
[4] = test system: Mtb H37Rv (ATCC 27294); experiment: MIC determination against Mtb H37Rv; format: cell-based, Mycobacterium tuberculosis
[5] = test system: Mtb strain K03b00DS; experiment: MIC determination against Mtb K03b00DS (DS); format: cell-based; conditions: Mycobacterium tuberculosis
[6] = test system: Mtb strain KB019; experiment: microbe, parasite or virus in culture; format: cell-based; conditions: Mycobacterium tuberculosis
[7] = test system: Mtb strain NIH_G269DR; experiment: microbe, parasite or virus in culture; format: cell-based; conditions: Mycobacterium tuberculosis
[8] = test system: Mtb strain 53 K113; experiment: microbe, parasite or virus in culture; format: cell-based; conditions: Mycobacterium tuberculosis
[9] = test system: Mtb strain 028 K111; experiment: microbe, parasite or virus in culture; format: cell-based; conditions: Mycobacterium tuberculosis
[10] = test system: Mtb strain CDC1551; experiment: MIC determination against Mtb CDC1551 (clinical strain); format: cell-based; conditions: Mycobacterium tuberculosis
[11] = molecular target: T2, CYP142; conditions: read-out: KD (CYP142); UV-Vis spectroscopy
[12] = Mycobacterium tuberculosis, 168 h
[13] = Mycobacterium tuberculosis, 336 h
[14] = Mycobacterium tuberculosis, 168 h, Table S1, H37Rv, […], 1 Week

Compound: CCOC(=O)c1cc2cc(-c3ccncc3)ccc2n1CCC1CCNCC1 [Compound 10]
- Kd [1]: 5000 ± 200 nM
- Kd [2]: 390 ± 60 nM

Compound: CCOC(=O)c1cc2cc(-c3ccncc3)ccc2n1CCN1CCOCC1 [Compound 12]
- Kd [1]: 2800 ± 100 nM
- Kd [2]: 1100 ± 100 nM

Compound: Cc1noc(-c2cc3cc(-c4ccncc4)ccc3n2CCC2CCNCC2)n1 [Compound 16]
- MIC ([3]; 168 h): 6.25 µM (≈ 2.42 µg/mL)
- MIC ([3]; 336 h): 6.25 µM (≈ 2.42 µg/mL)
- MIC [4, 12]: 4.7 µM (≈ 1.82 µg/mL)
- MIC [4, 13]: 12.5 µM (≈ 4.84 µg/mL)
- MIC ([5]; 168 h): 6.25 µM (≈ 2.42 µg/mL)
- MIC ([5]; 336 h): 6.25 µM (≈ 2.42 µg/mL)
- MIC ([6]; KB019, 168 h): 9.4 µM (≈ 3.64 µg/mL)
- MIC ([6]; KB019, 336 h): 12.5 µM (≈ 4.84 µg/mL)
- Kd [1]: > 100000 nM
- MIC ([7]; 168 h): 6.25 µM (≈ 2.42 µg/mL)
- MIC ([7]; 336 h): 9.4 µM (≈ 3.64 µg/mL)
- MIC ([8]; 53K113, 168 h): 6.25 µM (≈ 2.42 µg/mL)
- MIC ([8]; 53K113, 336 h): 6.25 µM (≈ 2.42 µg/mL)
- Kd [2]: 390 ± 50 nM
- MIC ([9]; 028K111, 168 h): 6.25 µM (≈ 2.42 µg/mL)
- MIC ([9]; 028K111, 336 h): 6.25 µM (≈ 2.42 µg/mL)
- MIC ([10]; 168 h): 6.25 µM (≈ 2.42 µg/mL)
- MIC ([10]; 336 h): 6.25 µM (≈ 2.42 µg/mL)

Compound: COC(=O)c1cccc(-c2ccncc2)c1 [Compound 3]
- Kd [1]: 146000 nM
- Kd [2]: 1500 nM

Compound: Cc1nnc(-c2cc3cc(-c4ccncc4)ccc3n2CCC2CCNCC2)o1 [Compound 18]
- MIC ([3]; 168 h): 50 µM (≈ 19.4 µg/mL)
- MIC ([3]; 336 h): 50 µM (≈ 19.4 µg/mL)
- MIC [4, 14]: 25 µM (≈ 9.69 µg/mL)
- MIC [4, 13]: > 50 µM
- MIC ([4]; Mycobacterium tuberculosis, 336 h, Table S1, H37Rv, […], 2 Week): 50 µM (≈ 19.4 µg/mL)
- MIC ([4]; Table S1, H37Rv, […], 1 Week): > 50 µM
- MIC ([5]; 168 h): 50 µM (≈ 19.4 µg/mL)
- MIC ([5]; 336 h): 50 µM (≈ 19.4 µg/mL)
- MIC ([6]; KB019, 168 h): > 50 µM
- MIC ([6]; KB019, 336 h): 50 µM (≈ 19.4 µg/mL)
- Kd [1]: 10200 ± 100 nM
- MIC ([7]; 168 h): > 50 µM
- MIC ([7]; 336 h): > 50 µM
- MIC ([8]; 53K113, 168 h): 50 µM (≈ 19.4 µg/mL)
- MIC ([8]; 53K113, 336 h): > 50 µM
- Kd [2]: 990 ± 100 nM
- MIC ([9]; 028K111, 168 h): 50 µM (≈ 19.4 µg/mL)
- MIC ([9]; 028K111, 336 h): > 50 µM
- MIC ([10]; 168 h): 50 µM (≈ 19.4 µg/mL)
- MIC ([10]; 336 h): 50 µM (≈ 19.4 µg/mL)

Compound: NC(=O)c1cc2cc(-c3ccncc3)ccc2n1CC1CCCCC1 [Compound 13]
- Kd [1]: 450 ± 40 nM
- Kd [2]: 30 ± 7 nM

Compound: CCOC(=O)c1cc2cc(-c3ccncc3)ccc2n1CC1CCCC1 [Compound 8]
- Kd [1]: 300 ± 60 nM
- Kd [2]: 60 ± 10 nM

Compound: CCOC(=O)c1cc2cc(-c3ccncc3)ccc2n1Cc1ccccc1 [Compound 5]
- Kd [1]: 650 ± 60 nM
- Kd [2]: 40 ± 10 nM

Compound: NNC(=O)c1ccncc1 [Isoniazid, reference compound]
- MIC [4, 14]: 0.15 µM (≈ 0.0206 µg/mL)

Compound: CCCC(=O)c1cc2cc(-c3ccncc3)ccc2n1CCC1CCNCC1 [Compound 19]
- MIC ([3]; 168 h): 6.25 µM (≈ 2.35 µg/mL)
- MIC ([3]; 336 h): 6.25 µM (≈ 2.35 µg/mL)
- MIC [4]: 9.4 µM (≈ 3.53 µg/mL)
- MIC [4, 12]: 6.25 µM (≈ 2.35 µg/mL)
- MIC [4, 14]: 9.4 µM (≈ 3.53 µg/mL)
- MIC [4, 13]: 12.5 µM (≈ 4.69 µg/mL)
- MIC ([4]; Table S1, H37Rv, […], 1 Week): 12.5 µM (≈ 4.69 µg/mL)
- Kd [11]: 230 ± 50 nM
- MIC ([5]; 168 h): 4.7 µM (≈ 1.76 µg/mL)
- MIC ([5]; 336 h): 4.7 µM (≈ 1.76 µg/mL)
- MIC ([6]; KB019, 168 h): 12.5 µM (≈ 4.69 µg/mL)
- MIC ([6]; KB019, 336 h): 19 µM (≈ 7.13 µg/mL)
- Kd [1]: 3600 ± 200 nM
- MIC ([7]; 168 h): 6.25 µM (≈ 2.35 µg/mL)
- MIC ([7]; 336 h): 6.25 µM (≈ 2.35 µg/mL)
- MIC ([8]; 53K113, 168 h): 6.25 µM (≈ 2.35 µg/mL)
- MIC ([8]; 53K113, 336 h): 6.25 µM (≈ 2.35 µg/mL)
- MIC ([9]; 028K111, 168 h): 6.25 µM (≈ 2.35 µg/mL)
- MIC ([9]; 028K111, 336 h): 6.25 µM (≈ 2.35 µg/mL)
- MIC ([10]; 168 h): 6.25 µM (≈ 2.35 µg/mL)
- MIC ([10]; 336 h): 6.25 µM (≈ 2.35 µg/mL)

Compound: NCc1ccc(-c2cnns2)cc1 [Compound 1]
- Kd [1]: 57700 nM
- Kd [2]: 610 nM

Compound: CCOC(=O)c1cc2cc(-c3ccncc3)ccc2n1C(=O)c1ccccc1 [Compound 6]
- Kd [1]: 120 ± 40 nM
- Kd [2]: 420 ± 80 nM

Compound: COc1ccc(-c2ccncc2)cc1 [Compound 2]
- Kd [1]: 58500 ± 3800 nM
- Kd [2]: 1600 ± 100 nM

Compound: NC(=O)c1cc2cc(-c3ccncc3)ccc2n1CCN1CCNCC1 [Compound 15]
- Kd [1]: 48800 ± 2300 nM
- Kd [2]: 2500 ± 200 nM

Compound: CCOC(=O)c1cc2cc(-c3ccncc3)ccc2n1CC1CCC1 [Compound 9]
- Kd [1]: 1100 ± 200 nM
- Kd [2]: 90 ± 10 nM

Compound: Cc1cnc(-c2cc3cc(-c4ccncc4)ccc3n2CCC2CCNCC2)o1 [Compound 17]
- MIC ([3]; 168 h): 6.25 µM (≈ 2.42 µg/mL)
- MIC ([3]; 336 h): 6.25 µM (≈ 2.42 µg/mL)
- MIC [4, 13]: 19 µM (≈ 7.34 µg/mL)
- MIC ([5]; 168 h): 4.7 µM (≈ 1.82 µg/mL)
- MIC ([5]; 336 h): 4.7 µM (≈ 1.82 µg/mL)
- MIC ([6]; KB019, 168 h): 12.5 µM (≈ 4.83 µg/mL)
- MIC ([6]; KB019, 336 h): 19 µM (≈ 7.34 µg/mL)
- Kd [1]: 5300 ± 200 nM
- MIC ([7]; 168 h): 6.25 µM (≈ 2.42 µg/mL)
- MIC ([7]; 336 h): 6.25 µM (≈ 2.42 µg/mL)
- MIC ([8]; 53K113, 168 h): 6.25 µM (≈ 2.42 µg/mL)
- MIC ([8]; 53K113, 336 h): 6.25 µM (≈ 2.42 µg/mL)
- Kd [2]: 790 ± 50 nM
- MIC ([9]; 028K111, 168 h): 6.25 µM (≈ 2.42 µg/mL)
- MIC ([9]; 028K111, 336 h): 6.25 µM (≈ 2.42 µg/mL)
- MIC ([10]; 168 h): 6.25 µM (≈ 2.42 µg/mL)
- MIC ([10]; 336 h): 6.25 µM (≈ 2.42 µg/mL)

Compound: CCOC(=O)c1cc2cc(-c3ccncc3)ccc2n1CC1CCCCC1 [Compound 7]
- Kd [1]: 310 ± 30 nM
- Kd [2]: 50 ± 10 nM

Compound: c1cc(-c2ccc3c(ccn3CCN3CCNCC3)c2)ccn1 [Compound 14]
- Kd [1]: 271000 ± 13000 nM
- Kd [2]: 11100 ± 500 nM

Compound: CCOC(=O)c1cc2cc(-c3ccncc3)ccc2n1CC1CCNCC1 [Compound 11]
- Kd [1]: 14800 ± 900 nM
- Kd [2]: 710 ± 90 nM

Compound: CCOC(=O)c1cc2cc(-c3ccncc3)ccc2[nH]1 [Compound 4, ethyl 5‐(pyridin‐4‐yl)‐1H‐indole‐2‐carboxylate]
- Kd [1]: 3000 nM
- Kd [2]: 750 nM

Reference: article PMC10205683, “Structure Based Discovery of Inhibitors of CYP125 and CYP142 from Mycobacterium tuberculosis” (Chemistry (Weinheim an Der Bergstrasse, Germany), 2023)
